Measured values published in PMC13286052 (Antimicrobial Agents and Chemotherapy, 2026).
Entries after “also recorded” stand apart in the source; their conditions may differ.

Assays:
VACV [1] = format: cell-based, vaccinia virus; details: 48 h
VACV [2] = details: cited from earlier work
MPXV resolvase (Mpr) = format: biochemical, monkeypox virus; details: 50 µM
poxvirus resolvases = details: cited from earlier work
vaccinia virus (VACV) = test: microbe, parasite or virus in culture; format: cell-based; details: for EC50: Orthopoxvirus vaccinia
VACV gene expression = format: cell-based; details: 10 µM
VACV E3 = format: cell-based, vaccinia virus; details: 10 µM
VACV DNA replication = format: cell-based, vaccinia virus; details: 10 µM
VACV [3] = format: cell-based, vaccinia virus
VACV [4] = format: cell-based, vaccinia virus; details: 10 µM
[5] = male, CD-1, mouse, in vivo
HCMV = details: cited from earlier work
pUL89C = details: cited from earlier work
in vivo = details: male, CD-1, mouse
in vitro = details: human
[6] = microsomes; cited from earlier work

Nc1ccn([C@@H]2O[C@H](CO)[C@@H](O)[C@@H]2O)c(=O)n1 [AraC, Cytarabine, reference compound]
late viral gene expression in rhesus colon enteroids (VACV [1]): markedly reduced

Cc1cc(C2CCCCC2)n(O)c(=O)c1 [Ciclopirox]
inhibition of VACV replication (VACV [2]): efficient inhibitors of VACV replication

O=c1c(-c2ccccc2)c(O)c2cc(-c3cccc(-c4ccccc4)c3)cnc2n1O [Compound 1, reference compound]
Mpr inhibition (MPXV resolvase (Mpr)): nearly complete inhibition
inhibition of poxvirus resolvases (poxvirus resolvases): potently inhibits

O=C(NNc1nc2cc(F)ccc2n2cccc12)c1cnccn1 [SC144]
inhibition of VACV replication (VACV [2]): efficient inhibitors of VACV replication

O=C(NN1C(=O)[C@@H]2[C@@H]3C=C[C@@H]([C@H]4C[C@@H]34)[C@@H]2C1=O)c1ccc(C(F)(F)F)cc1 [Tecovirimat, reference compound]
EC50 (vaccinia virus (VACV)): 25 nM

O=C(NCCc1ccc(F)cc1F)c1cn(Cc2ccc(F)cc2)cc(O)c1=O [ZW-2038]
reduction of Gaussia luciferase activity (vaccinia virus (VACV); 10 µM): more than 99%
EC50 (vaccinia virus (VACV)): 876 nM
luciferase activity from the early promoter (vEGluc) (VACV gene expression): did not affect
reporter activity from intermediate promoter (vIGluc) (VACV gene expression): significantly diminished
reporter activity from late promoter (vLGluc) (VACV gene expression): significantly diminished
E3 levels (VACV E3): did not reduce
viral DNA accumulation (VACV DNA replication): marked reduction
viral replication (luciferase activity) in human jejunum enteroids (VACV [3]): significantly suppressed
late viral gene expression in rhesus colon enteroids (VACV [1]): markedly reduced
VACV titers in ex vivo mouse lung tissue (VACV [4]): consistently reduced
Mpr inhibition (MPXV resolvase (Mpr)): no Mpr inhibition; also recorded: did not inhibit
cell viability compared to vehicle (HFFs): no significant difference
Bioavailability (F, %) [5]: 4.1%
oral Cmax lower than IV Cmax [5]: 14 fold
CL ([5]; po, 20 mg/kg): 67 ± 50 mL/min/kg
V ([5]; po, 20 mg/kg): 117 ± 46 L/kg
inhibition of HCMV (HCMV): potently inhibited
inhibition of pUL89C (pUL89C): did not inhibit
bioavailability (in vivo; Bioavailability (F, %)): 4%
AUC(0-t) (in vivo; iv, 2 mg/kg): 238 ± 54 ng·h/mL
Cmax (in vivo; iv, 2 mg/kg): 528 ng/mL
MRT last (in vivo; iv, 2 mg/kg): 0.9 ± 0.4 h
Tmax (in vivo; iv, 2 mg/kg): 0.08 h
clearance (in vivo; iv, 2 mg/kg): 150 mL/min/kg
half-life (in vivo; iv, 2 mg/kg): 5 ± 2 h
AUC(0-t) (in vivo; po, 20 mg/kg): 98 ± 15 ng·h/mL
Cmax (in vivo; po, 20 mg/kg): 38 ng/mL
MRT last (in vivo; po, 20 mg/kg): 11 ± 2 h
Tmax (in vivo; po, 20 mg/kg): 0.2 ± 0.2 h
half-life (in vivo; po, 20 mg/kg): 104 ± 159 h
CC50 (in vitro): > 500000 nM
microsomal stability [6]: good
